# Key:
# [1] = test system: L-1210 leukemia; test: Anti-cancer study, L-1210 leukemia in BDF1 mice; format: in vivo, mouse; details: 20 mg/kg, seven days (Table 25)
# From the text: Mice of the BDF1 strain are given an i.p. inoculation of 10^6 L-1210 leukemia cells on day 0. Twenty-four hours later, groups of 7 mice each are started on a […] treatment regimen of various doses of the compounds of this invention. The experiment is continued according to the guidelines provided under the National Cancer Institute protocol for screening new anti-cancer agents and T/C ratios (median or mean survival time of treated groups over median or mean survival time of controls) are calculated. A T/C value ≥1.25 (or 125%) is considered significant anticancer activity.
# Mice of the BDF1 strain, inoculated with L-1210 leukemia cells, are treated for seven days with either 25, 50, 100, 200 or 400 mg/kg of Cpd. 1 or just buffer. The National Cancer Institute protocol for screening new anti-cancer agents is followed and T/C ratios are calculated.
# Mice of the BDF1 strain, inoculated with L-1210 leukemia cells, are treated for seven days with either 100 mg/kg of Cpd. 1, 20 mg/kg of 5-fluorouracil (5-FU), a known anti-cancer agent, or just buffer. The National Cancer Institute protocol for screening new anti-cancer agents is followed and T/C ratios are calculated.
# [2] = test system: spleen lymphocytes of C57BL/6 mice; test: In vivo treatment, lymphocyte stimulation assay, C57BL/6 mice; details: 4 days
# Description: (§1) The purpose of this assay is to challenge lymphocytes in microcultures with one or more polyclonal mitogens at concentrations that will induce mitogenesis within 72 hours of stimulation.
# (§2) In the mouse model, spleens are removed from different strains of mice and the spleen cells are teased free and suspended in RPMI-1640 tissue culture medium at a concentration of usually 1×10^7 ml. These cells are dispensed at a concentration of 5.0×10^5 cells per microculture well in a 96 well flat bottom 96 well tissue culture plate. All testing of the compounds of this invention or mitogens are done in replicates of 10. The cells are then treated with PHA, Con-A, specific antigens, or buffer only. If in vitro testing is done, varying concentrations of the compounds of this invention or buffer only are added to the cells as well. After treatment with the mitogens and/or compounds of this invention, the cells are incubated for 72 hours. The response of these cells to mitogens and/or the compounds of this invention is assessed using ^14 C-thymidine labeling on the fourth day at a concentration of 0.01 μCi/well. The labeled cells are harvested using a lymphocyte harvestor and placed onto fibrous paper discs. A scintillation cocktail is added to vials contaning the discs and the results are obtained using a LKB-liquid scintillation counter (Model 1216/Rackbeta II). The data is expressed as a ratio of the cpm of the mitogen stimulated group to the control (non-mitogen) treated group=lymphocyte stimulation index (LSI).
# (§3) The lymphocyte stimulation assay may be performed directly on spleen cells obtained from various strains of mice not treated with the compounds of this invention or on lymphocytes obtained from […]. […] Alternatively, the mice may be treated in vivo with the compounds of this invention by intraperitoneal multi-dose schedules, followed by sacrifice and harvesting spleen lymphocytes. These cells are then tested for their response to polyclonal mitogens or specific antigens used to immunize the mice. In this sytem however, no additional compound is added to the in vitro lymphocyte stimulation assay system.
# Two strains of mice, C57BL/6 and BDF1 are treated for seven days with i.p. administration of either 25, 50, 100, 200, or 400 mg/kg of Cpd. 1 or just buffer. This is followed on the eighth day by a lymphocyte stimulation assay.
# A comparison is made of the lymphocyte response to C57BL/6 mice treated 4 days with i.p. administration of either 50, 100, 200, 400 or 800 mg/kg of Cpd. 1, 50, 100, 200, 400 or 800 mg/kg of ascorbic acid (AA), or just buffer. This is followed on the fifth day by a lymphocyte stimulation assay.
# Two strains of mice, C57BL/6 and BALB/c, are treated 4 days with i.p. administration of either 50, 100, 200, or 400 mg/kg of Cpd. 1, or just buffer. This is followed on the fifth day by a lymphocyte stimulation assay.
# C57BL/6 mice were treated with four daily i.p. doses of either 50, 100, 200, or 400 mg/kg of Cpd. 1 or just buffer. On the fifth day a lymphocyte stimulation assay was performed.
# Mice of the C57BL/6 strain were tested with i.p. administration of either 100, 200, 400 or 600 mg/kg of Cpd. 1 or just buffer. This was followed by removal of spleens and treatment of lymphocytes therein with mitogens PHA and Con-A.
# The compound of Example 2, Cpd. 2, was tested in vivo by using C57BL/6 mice and treating them with […] or just buffer for four consecutive days by the i.p. route. On the fifth day a lymphocyte stimulation assay was performed.
# [3] = test system: human lymphocytes; test: In vitro lymphocyte stimulation assay in humans; format: cell-based; details: 0.1-100 μg/well, PHA and Con-A
# Description: as §1, §2
# The lymphocyte stimulation assay may be performed directly on spleen cells obtained from various strains of mice not treated with the compounds of this invention or on lymphocytes obtained from […]. […] Alternatively, the mice may be treated in vivo with the compounds of this invention by intraperitoneal multi-dose schedules, followed by sacrifice and harvesting spleen lymphocytes. These cells are then tested for their response to polyclonal mitogens or specific antigens used to immunize the mice. […]
# [4] = test system: spleen lymphocytes from C57BL/6 mice; test: In vitro lymphocyte stimulation assay, C57BL/6 spleen lymphocytes; format: cell-based, mouse
# Description: as §1, §2, §3
# An in vitro lymphocyte stimulation assay is performed directly on normal spleen lymphocytes removed from five normal C57BL/6 mice, using concentrations of Cpd. […] Following three days of incubation the assay is completed.
# An in vitro lymphocyte stimulation assay was performed using spleen lymphocytes from normal C57BL/6 mice. The lymphocytes were treated with either 1, 5, 10, 50, or 100 μg/well of Cpd. 1 or buffer.
# Cpd. 2 was tested using normal spleen lymphocytes from C57BL/6 mice. A lymphocyte stimulation assay was conducted using either 1, 5, 10, 50, or 100 μg/well […] or just buffer.
# Spleen cells from C57BL/6 mice were treated, in vitro, with the crystallizing reagents, succinic acid and succinimide. Since these compounds are spontaneously released from the molecular complex in solution at a molar ratio of 2 moles of Cpds. 1, 2, or 3 per mole of the crystalline reagent, these reagents were treated in the lymphocyte stimulation assay at proper molar concentrations.
# The compound of example 3, Cpd. 3, was used to treat C57BL/6 spleen lymphocytes in vitro. The lymphocytes were treated with either 1, 5, 10, 50, or 100 μg/well of Cpd. 3 or just buffer and then a lymphocyte stimulation assay was performed.
structure (smiles),measurement,setting,value
"O=c1[nH]cc(F)c(=O)[nH]1 [5-FU, 5-fluorouracil, reference compound]",Median Survival Time,[1],30
"O=C1O[C@H]([C@@H](O)CO)C(O)=C1O [AA, ascorbic acid, reference compound]",proliferation with Con-A,[2]; 50 mg/kg i.p.,stimulation of proliferation
same,effect with PHA,[2]; 50-800 mg/kg i.p.,No statistically significant measurable effect
same,proliferative or anti-proliferative effect,[3],no significant proliferative or anti-proliferative effect
CN1C(=O)CCC1=O.Cc1ccc(C2(O)C(=O)OC3C(O)COC32O)o1.Cc1ccc(C2(O)C(=O)OC3C(O)COC32O)o1 (stereo not shown) [Cpd. 3],"Lymphocyte Stimulation Index, Con-A",[4]; 1 μg/well in vitro,73.2
same,"Lymphocyte Stimulation Index, Control (no mitogen)",[4]; 1 μg/well in vitro,.60
same,"Lymphocyte Stimulation Index, PHA",[4]; 1 μg/well in vitro,12.5
same,"Lymphocyte Stimulation Index, Con-A",[4]; 5 μg/well in vitro,80.9
same,"Lymphocyte Stimulation Index, Control (no mitogen)",[4]; 5 μg/well in vitro,.64
same,"Lymphocyte Stimulation Index, PHA",[4]; 5 μg/well in vitro,18.5
same,response to PHA,[4]; 10 μg/well,significantly stimulated the response
same,"Lymphocyte Stimulation Index, Con-A",[4]; 10 μg/well in vitro,89.6
same,"Lymphocyte Stimulation Index, Control (no mitogen)",[4]; 10 μg/well in vitro,.47
same,"Lymphocyte Stimulation Index, PHA",[4]; 10 μg/well in vitro,24.0
same,response to Con-A,[4]; 50 μg/well,slightly stimulated the response
same,"Lymphocyte Stimulation Index, Con-A",[4]; 50 μg/well in vitro,97.2
same,"Lymphocyte Stimulation Index, Control (no mitogen)",[4]; 50 μg/well in vitro,.27
same,"Lymphocyte Stimulation Index, PHA",[4]; 50 μg/well in vitro,4.08
same,response to Con-A,[4]; 100 μg/well,suppressed the response
same,"Lymphocyte Stimulation Index, Con-A",[4]; 100 μg/well in vitro,2.88
same,"Lymphocyte Stimulation Index, Control (no mitogen)",[4]; 100 μg/well in vitro,.25
same,"Lymphocyte Stimulation Index, PHA",[4]; 100 μg/well in vitro,0.263
same,response to PHA,[4]; 50 and 100 μg/well,suppressed the response
"O=C(O)CCC(=O)O [Succinic Acid, succinic acid, reference compound]","Lymphocyte Stimulation Index, Con-A",[4]; 1.04 μg/well in vitro,64.6
same,"Lymphocyte Stimulation Index, Control (no mitogen)",[4]; 1.04 μg/well in vitro,.94
same,"Lymphocyte Stimulation Index, PHA",[4]; 1.04 μg/well in vitro,15.7
same,"Lymphocyte Stimulation Index, Con-A",[4]; 2.08 μg/well in vitro,51.1
same,"Lymphocyte Stimulation Index, Control (no mitogen)",[4]; 2.08 μg/well in vitro,1.0
same,"Lymphocyte Stimulation Index, PHA",[4]; 2.08 μg/well in vitro,15.3
same,"Lymphocyte Stimulation Index, Con-A",[4]; 4.15 μg/well in vitro,42.3
same,"Lymphocyte Stimulation Index, Control (no mitogen)",[4]; 4.15 μg/well in vitro,.91
same,"Lymphocyte Stimulation Index, PHA",[4]; 4.15 μg/well in vitro,14.0
same,"Lymphocyte Stimulation Index, Con-A",[4]; 8.3 μg/well in vitro,35.6
same,"Lymphocyte Stimulation Index, Control (no mitogen)",[4]; 8.3 μg/well in vitro,.91
same,"Lymphocyte Stimulation Index, PHA",[4]; 8.3 μg/well in vitro,12.4
same,"Lymphocyte Stimulation Index, Con-A",[4]; 16.6 μg/well in vitro,38.5
same,"Lymphocyte Stimulation Index, Control (no mitogen)",[4]; 16.6 μg/well in vitro,1.1
same,"Lymphocyte Stimulation Index, PHA",[4]; 16.6 μg/well in vitro,11.5
same,PHA and Con-A mitogenesis,"[4]; with increased dosage, 1.04-16.6 μg/well",decrease in PHA and Con-A mitogenesis
"O=C1CCC(=O)N1 [Succinimide, succinimide, reference compound]","Lymphocyte Stimulation Index, Con-A",[4]; 13.92 μg/well in vitro,92.9
same,"Lymphocyte Stimulation Index, Control (no mitogen)",[4]; 13.92 μg/well in vitro,1.4
same,"Lymphocyte Stimulation Index, PHA",[4]; 13.92 μg/well in vitro,17.1
same,effect on response to either mitogen,[4]; 0.87-13.92 μg/well,no significant suppressive or enhancing effect
